Test results as given in patent US4795751A, “5-substituted-6,8-difluoroquinolines useful as antibacterial agents” (Dainippon Pharmaceutical Co., Ltd., priority 1985, dated 1989).
Values after ≈ are worked out from the molar mass of the structure shown.

Legend:
M. bovis P-7101 = test: microbe, parasite or virus in culture; assay type: cell-based; details: Mycobacterium tuberculosis variant bovis, P7101, 20 h, read-out: minimum inhibitory concentration (MIC)
Al. faecalis P-7001 = test: In vitro antibacterial activity, twofold agar-dilution method; assay type: cell-based; details: Alcaligenes faecalis, P7001; Al. faecalis P-7001 (Gram -); Mueller-Hinton agar, 20 h, 37° C.; calculated for free base; read-out: minimum inhibitory concentration (MIC)
Procedure: (§1) The numbers in the table show minimum inhibitory concentrations (MIC) (μg/ml), calculated for free base. The minimum inhibitory concentration was determined by the twofold agar-dilution method, which was recommended by Japan Society of Chemotherapy (Chemotherapy, 29(1), 76(1981)), using Muller-Hinton agar. One loopful of an overnight culture of test organisms in Mueller-Hinton broth was inoculated onto 10-ml drug-containing agar layers in petri dishes. Bacterial inocula contained approximately 10^6 colonyl-formingunits. Bacterial growth was observed after 20-hour incubation at 37° C. The MIC was defined as the lowest drug concentration which prevented visible bacterial growth.

S. aureus 209P JC-1 = test: as above; assay type: cell-based; details: Staphylococcus aureus; S. aureus 209P JC-1 (Gram +); Mueller-Hinton agar, 20 h, 37° C.; calculated for free base; read-out: minimum inhibitory concentration (MIC)
Procedure: as §1

Ac. calcoaceticus P-6901 = test: as above; assay type: cell-based; details: Acinetobacter calcoaceticus, P6901; Ac. calcoaceticus P-6901 (Gram -); Mueller-Hinton agar, 20 h, 37° C.; calculated for free base; read-out: minimum inhibitory concentration (MIC)
Procedure: as §1

B. subtilis PCI 219 = test: as above; assay type: cell-based; details: Bacillus subtilis, PCI219; B. subtilis PCI 219 (Gram +); Mueller-Hinton agar, 20 h, 37° C.; calculated for free base; read-out: minimum inhibitory concentration (MIC)
Procedure: as §1

S. aureus No. 80 = test: as above; assay type: cell-based; details: Staphylococcus aureus; S. aureus No. 80 (Gram +); Mueller-Hinton agar, 20 h, 37° C.; calculated for free base; read-out: minimum inhibitory concentration (MIC)
Procedure: as §1

P. aeruginosa No. 12 = test: as above; assay type: cell-based; details: Pseudomonas aeruginosa; P. aeruginosa No. 12 (Gram -); Mueller-Hinton agar, 20 h, 37° C.; calculated for free base; read-out: minimum inhibitory concentration (MIC)
Procedure: as §1

E. coli P-51213 = test: as above; assay type: cell-based; details: Escherichia coli, P51213; E. coli P-51213 (Gram -); Mueller-Hinton agar, 20 h, 37° C.; calculated for free base; read-out: minimum inhibitory concentration (MIC)
Procedure: as §1

S. aureus No. 50774 = test: as above; assay type: cell-based; details: Staphylococcus aureus; S. aureus No. 50774 (Gram +); Mueller-Hinton agar, 20 h, 37° C.; calculated for free base; read-out: minimum inhibitory concentration (MIC)
Procedure: as §1

S. epidermidis No. 8 = test: as above; assay type: cell-based; details: Staphylococcus epidermidis; S. epidermidis No. 8 (Gram +); Mueller-Hinton agar, 20 h, 37° C.; calculated for free base; read-out: minimum inhibitory concentration (MIC)
Procedure: as §1

male mice (ddY) = test: Acute oral toxicity in mice; details: conclusion in words from Table 5
Procedure: (§2) A solution containing each of compounds 1, 2 and 3 of this invention in various concentrations was orally given to male mice (ddY) at a dose of 0.1 ml per 10 g of body weight. The number of dead mice was counted after 7 days, and the value of median lethal dose (LD50, mg/kg) was calculated in accordance with the Behrens-Kaerber method.

[1] = Acute oral toxicity in mice; details: mouse, in vivo, po
Procedure: as §2

[2] = tested on: Pseudomonas aeruginosa 12; test: In vivo efficacy against systemic infections in mice; parameters: species or system Pseudomonas aeruginosa; male mice (ddY-S); details: Pseudomonas aeruginosa, 12, 168 h, oral, intraperitoneal infection about 5×10^3 cells, 4% mucin, twice, immediately and 6 h after infection, 7 days, calculated for free base, read-out: median effective dose (ED50)
Procedure: (§3) Compounds were each dissolved in deionized water. Each of the solutions was orally administered to mice infected with each of the test organisms under the conditions shown hereinbelow, and the median effective dose (ED50) was calculated by probit analysis. The numerals in the table show ED50 (mg/kg) value, calculated for free base.
(§4) Mice: Male mice (ddY-S) weighing about 20 g
Pseudomonas aeruginosa 12
Intraperitoneal infection with about 5×10^3 cells per mouse suspended in tryptosoy broth with 4% mucin.
(§5) Four times, immediately, 6, 24 and 30 hours after infection in case of Streptococcus pneumoniae 1 Neufeld. Twice, immediately and 6 hours after infection in case of other organisms.
(§6) For 14 days in case of Staphylococcus aureus 50774 and Streptocuccus pneumoniae 1 Neufeld. For 7 days in case of other organisms.

[3] = tested on: Streptococcus pyogenes A65; test: as above; parameters: species or system Streptococcus pyogenes; male mice (ddY-S); details: A65, 168 h, oral, intraperitoneal infection 3×10^7 cells, twice, immediately and 6 h after infection, 7 days, calculated for free base, read-out: median effective dose (ED50)
Procedure: as §3, §4
Streptococcus pyogenes A65
Intraperitoneal infection with 3×10^7 cells per mouse suspended in brain heart infusion broth.
as §5, §6

Structure (SMILES): CC1CN(c2c(F)c(N)c3c(=O)c(C(=O)O)cn(C4CC4)c3c2F)CC(C)N1 (stereo not drawn) [Compound 2, 5-Amino-1-cyclopropyl-6,8-difluoro-7-(3,5-dimethyl-1-piperazinyl)-1,4-dihydro-4-oxoquinoline-3-carboxylic acid]
- MIC (M. bovis P-7101): 0.39 µg/mL (≈ 0.994 µM)
- MIC (Al. faecalis P-7001): 0.2 µg/mL (≈ 0.51 µM)
- MIC (S. aureus 209P JC-1): 0.05 µg/mL (≈ 0.127 µM)
- MIC (Ac. calcoaceticus P-6901): 0.0125 µg/mL (≈ 0.0319 µM)
- MIC (B. subtilis PCI 219): 0.05 µg/mL (≈ 0.127 µM)
- MIC (S. aureus No. 80): 0.0125 µg/mL (≈ 0.0319 µM)
- MIC (P. aeruginosa No. 12): 0.2 µg/mL (≈ 0.51 µM)
- MIC (E. coli P-51213): 0.05 µg/mL (≈ 0.127 µM)
- MIC (S. aureus No. 50774): 0.025 µg/mL (≈ 0.0637 µM)
- MIC (S. epidermidis No. 8): 0.025 µg/mL (≈ 0.0637 µM)
- oral toxicity (male mice (ddY)): low oral toxicity
- LD50 at 168 h [1]: > 2000 mg/kg

Structure (SMILES): Nc1c(F)c(N2CCNCC2)c(F)c2c1c(=O)c(C(=O)O)cn2C1CC1 [Compound 3, 5-Amino-1-cyclopropyl-6,8-difluoro-7-(1-piperazinyl)-1,4-dihydro-4-oxoquinoline-3-carboxylic acid]
- MIC (M. bovis P-7101): 0.39 µg/mL (≈ 1.07 µM)
- MIC (Al. faecalis P-7001): 0.2 µg/mL (≈ 0.549 µM)
- MIC (S. aureus 209P JC-1): 0.05 µg/mL (≈ 0.137 µM)
- MIC (Ac. calcoaceticus P-6901): 0.05 µg/mL (≈ 0.137 µM)
- MIC (B. subtilis PCI 219): 0.1 µg/mL (≈ 0.274 µM)
- MIC (S. aureus No. 80): 0.05 µg/mL (≈ 0.137 µM)
- MIC (P. aeruginosa No. 12): 0.2 µg/mL (≈ 0.549 µM)
- MIC (E. coli P-51213): 0.1 µg/mL (≈ 0.274 µM)
- MIC (S. aureus No. 50774): 0.05 µg/mL (≈ 0.137 µM)
- MIC (S. epidermidis No. 8): 0.05 µg/mL (≈ 0.137 µM)
- oral toxicity (male mice (ddY)): low oral toxicity
- LD50 at 168 h [1]: > 2000 mg/kg

Structure (SMILES): CN1CCN(c2c(F)c(N)c3c(=O)c(C(=O)O)cn(C4CC4)c3c2F)CC1 [Compound 4, 5-Amino-1-cyclopropyl-6,8-difluoro-7-(4-methyl-1-piperazinyl)-1,4-dihydro-4-oxoquinoline-3-carboxylic acid]
- MIC (M. bovis P-7101): 0.39 µg/mL (≈ 1.03 µM)
- MIC (Al. faecalis P-7001): 0.2 µg/mL (≈ 0.529 µM)
- MIC (S. aureus 209P JC-1): 0.1 µg/mL (≈ 0.264 µM)
- MIC (Ac. calcoaceticus P-6901): 0.025 µg/mL (≈ 0.0661 µM)
- MIC (B. subtilis PCI 219): 0.1 µg/mL (≈ 0.264 µM)
- MIC (S. aureus No. 80): 0.025 µg/mL (≈ 0.0661 µM)
- MIC (P. aeruginosa No. 12): 0.2 µg/mL (≈ 0.529 µM)
- MIC (E. coli P-51213): 0.1 µg/mL (≈ 0.264 µM)
- MIC (S. aureus No. 50774): 0.05 µg/mL (≈ 0.132 µM)
- MIC (S. epidermidis No. 8): 0.05 µg/mL (≈ 0.132 µM)

Structure (SMILES): CCN1CCN(c2c(F)c(N)c3c(=O)c(C(=O)O)cn(C4CC4)c3c2F)CC1 [Compound 5, 5-Amino-1-cyclopropyl-6,8-difluoro-7-(4-ethyl-1-piperazinyl)-1,4-dihydro-4-oxoquinoline-3-carboxylic acid]
- MIC (M. bovis P-7101): 0.39 µg/mL (≈ 0.994 µM)
- MIC (Al. faecalis P-7001): 0.2 µg/mL (≈ 0.51 µM)
- MIC (S. aureus 209P JC-1): 0.05 µg/mL (≈ 0.127 µM)
- MIC (Ac. calcoaceticus P-6901): 0.0125 µg/mL (≈ 0.0319 µM)
- MIC (B. subtilis PCI 219): 0.1 µg/mL (≈ 0.255 µM)
- MIC (S. aureus No. 80): 0.025 µg/mL (≈ 0.0637 µM)
- MIC (P. aeruginosa No. 12): 0.39 µg/mL (≈ 0.994 µM)
- MIC (E. coli P-51213): 0.05 µg/mL (≈ 0.127 µM)
- MIC (S. aureus No. 50774): 0.025 µg/mL (≈ 0.0637 µM)
- MIC (S. epidermidis No. 8): 0.05 µg/mL (≈ 0.127 µM)

Structure (SMILES): Nc1c(F)c(N2CCNC(CF)C2)c(F)c2c1c(=O)c(C(=O)O)cn2C1CC1 (stereo not drawn) [Compound 6, 5-Amino-1-cyclopropyl-6,8-difluoro--7-(3-fluoromethyl-1-piperazinyl)-1,4-dihydro-4-oxoquinoline-3-carboxylic acid]
- MIC (M. bovis P-7101): 0.1 µg/mL (≈ 0.252 µM)
- MIC (Al. faecalis P-7001): 0.05 µg/mL (≈ 0.126 µM)
- MIC (S. aureus 209P JC-1): 0.025 µg/mL (≈ 0.0631 µM)
- MIC (Ac. calcoaceticus P-6901): 0.0063 µg/mL (≈ 0.0159 µM)
- MIC (B. subtilis PCI 219): 0.025 µg/mL (≈ 0.0631 µM)
- MIC (S. aureus No. 80): 0.0063 µg/mL (≈ 0.0159 µM)
- MIC (P. aeruginosa No. 12): 0.2 µg/mL (≈ 0.505 µM)
- MIC (E. coli P-51213): 0.05 µg/mL (≈ 0.126 µM)
- MIC (S. aureus No. 50774): 0.0125 µg/mL (≈ 0.0315 µM)
- MIC (S. epidermidis No. 8): 0.025 µg/mL (≈ 0.0631 µM)

Structure (SMILES): CCn1cc(C(=O)O)c(=O)c2c(N)c(F)c(N3CCNCC3)c(F)c21 [Compound A, 5-amino-1-ethyl-6,8-difluoro-7-(1-piperazinyl)-1,4-dihydro-4-oxoquinoline-3-carboxylic acid, reference compound]
- MIC (M. bovis P-7101): 3.13 µg/mL (≈ 8.88 µM)
- ED50 [2]: 15 mg/kg
- MIC (Al. faecalis P-7001): 0.78 µg/mL (≈ 2.21 µM)
- MIC (S. aureus 209P JC-1): 0.2 µg/mL (≈ 0.568 µM)
- MIC (Ac. calcoaceticus P-6901): 0.2 µg/mL (≈ 0.568 µM)
- MIC (B. subtilis PCI 219): 0.39 µg/mL (≈ 1.11 µM)
- MIC (S. aureus No. 80): 0.2 µg/mL (≈ 0.568 µM)
- MIC (P. aeruginosa No. 12): 0.78 µg/mL (≈ 2.21 µM)
- MIC (E. coli P-51213): 0.39 µg/mL (≈ 1.11 µM)
- MIC (S. aureus No. 50774): 0.2 µg/mL (≈ 0.568 µM)
- MIC (S. epidermidis No. 8): 0.39 µg/mL (≈ 1.11 µM)
- ED50 [3]: > 25 mg/kg
